From ChEMBL document CHEMBL6127093, “The evolution of small-molecule Akt inhibitors from hit to clinical candidate” (Eur J Med Chem, 2024)
≈ marks a conversion by molar mass, not a printed value. Each block holds one molecule with its values, some of them ahead of it.

Experiments:
[1] = system: PC-3; experiment: Antitumor activity against human PC-3 cells xenografted in mouse assessed as inhibition of tumor growth at 50 mg/kg, po administered for 15 days relative to control; format: functional; conditions: PC-3, 360 h, time 15 day, read-out: TGI
[2] = system: PC-3; experiment: Antitumor activity against human PC-3 cells xenografted in CD-1 mouse assessed as tumor growth inhibition at 100 mg/kg, po bid administration relative to control; format: functional; conditions: read-out: TGI
[3] = Antiproliferative activity against human 95-D cells assessed as reduction in cell viability incubated for 24 hrs by MTT assay; format: functional, cell-based
[4] = system: KOSC-2; experiment: Antiproliferative activity against human KOSC-2 cells assessed as reduction in cell viability incubated for 24 hrs by MTT assay; format: functional, cell-based; conditions: KOSC-2, 24 h
[5] = Antiproliferative activity against human KHOS-240S cells assessed as reduction in cell viability incubated for 24 hrs by MTT assay; format: functional, cell-based
[6] = Metabolic stability in mouse hepatocyte assessed as intrinsic clearance; format: ADME, cell-based; conditions: hepatocytes
[7] = Metabolic stability in rat hepatocyte assessed as intrinsic clearance; format: ADME, cell-based; conditions: hepatocytes
[8] = Clearance in Beagle dog at 0.5 mg/kg, iv; format: ADME, organism-based, Canis lupus familiaris; conditions: in vivo
[9] = Volume of distribution at steady state in mouse at 5 mg/kg, iv; format: ADME, organism-based; conditions: in vivo, read-out: Vdss
[10] = Volume of distribution at steady state in rat at 1 mg/kg, iv; format: ADME, organism-based; conditions: in vivo, read-out: Vdss
[11] = Volume of distribution at steady state in dog at 1 mg/kg, iv; format: ADME, organism-based, Canis lupus familiaris; conditions: in vivo, read-out: Vdss
[12] = in vivo; conditions: mouse
[13] = in vivo; conditions: rat
[14] = Aqueous solubility of compound at pH 7.4; format: physicochemical; conditions: buffer
[15] = Half life in Sprague-Dawley rat at 2 mg/kg, iv by LC-MS/MS analysis; format: ADME, organism-based; conditions: in vivo
[16] = Oral bioavailability in CD-1 mouse at 5 mg/kg measured for 24 hrs by LC-MS/MS analysis; format: ADME, organism-based; conditions: in vivo
[17] = Microsomal stability in human liver microsomes assessed as half life; format: ADME, Microsome

Structure (SMILES): Cc1c(NCCN2CCCC2)cc(C(=O)CCC(F)(F)F)cc1N1CCN(c2ncnc3[nH]nc(Br)c23)CC1 [XL-418]
inhibition in vivo at 50 mg/kg [1]: 52%
inhibition in vivo at 100 mg/kg [2]: 90%

Structure (SMILES): Cn1nccc1-c1ccc(C(=O)N[C@@H]2CNCC[C@H]2c2ccc(F)c(F)c2)c(F)c1
IC50 [3]: 1.03 µM
IC50 [4]: 7.47 µM
IC50 [5]: 7.47 µM

Structure (SMILES): NC1(C(=O)N[C@@H](CCO)c2ccc(Cl)cc2)CCN(c2ncnc3[nH]ccc23)CC1 [CAPIVASERTIB]
IC50 [3]: 2.32 µM
IC50 [4]: 40.4 µM
IC50 [5]: 40.4 µM
clearance [12]: 86 mL/min/kg
clearance [13]: 37 mL/min/kg

Continued, values first:

CLH [6]: 10 µL/min
CLH [7]: 19 µL/min
clearance [8]: 2 mL/min/kg
Vd [9]: 2.8 L/kg
Vd [10]: 3.1 L/kg
Vd [11]: 2 L/kg
Structure (SMILES): NC1(C(=O)NCc2ccc(Cl)cc2)CCN(c2ncnc3[nH]ccc23)CC1

solubility [14]: 17 µg/mL (≈ 37.8 µM)
half-life [15]: 3.9 h
bioavailability [16]: 10%
Structure (SMILES): NC(=O)c1cccc2c(N[C@H](CN3CCC3)c3ccc(Cl)c(C(F)(F)F)c3)ncnc12 [RUPITASERTIB]

half-life [17]: 0.917 h
Structure (SMILES): Nc1ncccc1-c1nc2ccc(-c3ccccc3)nc2n1-c1ccc(C2(N)CCC2)cc1 [MIRANSERTIB]
